Results on one compound are retold here after publication PMC6282105 (Molecular Pharmaceutics, 2018).

Data set [1] can be described thus: Stability of the building block toward SPPS reagents. Type of data set: physicochemical. The note with it: SPPS conditions.
Data set [2] deals with T1, nitroreductase (NTR) (Escherichia coli, UniProt P38489).
T1 sequence (P38489 1-217): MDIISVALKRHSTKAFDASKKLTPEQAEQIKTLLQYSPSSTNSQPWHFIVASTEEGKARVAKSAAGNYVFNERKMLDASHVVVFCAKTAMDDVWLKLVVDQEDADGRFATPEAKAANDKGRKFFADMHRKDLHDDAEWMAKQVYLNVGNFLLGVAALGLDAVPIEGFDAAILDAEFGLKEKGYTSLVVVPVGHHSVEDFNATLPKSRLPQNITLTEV
The experiment in a line: NTR-mediated removal of the CNBz moiety, followed by analytical HPLC. In kind it is biochemical. Particulars: 0.3 equiv NTR, NADH as cofactor, analytical HPLC (Figure S2).

Turning to `O=C(NCCCC(NC(=O)OCC1c2ccccc2-c2ccccc21)C(=O)O)NC(=O)OCc1ccc([N+](=O)[O-])cc1` (centres unmarked) [compound 1, 14-(9H-fluoren-9-yl)-1-(4-nitrophenyl)-3,5,12-trioxo-2,13-dioxa-4,6,11-triazatetradecane-10-carboxylic acid], the “stability toward 20% piperidine and TFA” value in data set [1] is on record as “very stable”. Further, the “time to full removal of the CNBz moiety” value in data set [2] is at most 5 min.
